Assay results from patent US20240058464A1 (Fortis Therapeutics, Inc., priority 2021, published 2024).

Key:
CD46 expression [1] = experiment: CD46 expression by RNA-sequencing in paired tumor biopsies before and after therapy; details: paired biopsies; for CD46 expression, Post-Treatment Biopsy / CD46 expression, Pre-Treatment Biopsy: RNA-seq log2-transformed counts;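 on all read-outs here: FFPE human tumor biopsies, exome-capture RNA-seq, reads aligned to GRCh37, counts normalized for GC content, length and depth, summed per gene, log2-transformed, samples paired before versus after therapy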
Experimental: Gene expression was determined by RNA-sequencing from formalin-fixed, paraffin-embedded (FFPE) tumor samples using an exome capture-based protocol. Briefly, total nucleic acid was extracted from FFPE solid tumor samples. The RNA sample was treated with DNAse and reverse transcribed. cDNA was captured with a custom probe set targeting the human exome. A library was prepared from the captured cDNA and sequenced on the Illumina platform. Sequence read were aligned to GRCh37 using Kallisto and normalized to quantify gene expression. Specifically, transcript counts were corrected for GC content and length using quantile normalization and adjusted for sequencing depth via a size factor method. Normalized counts in protein coding transcripts covered by the exome panel were then summed to obtain gene-level counts. Subsequent expression analyses were performed on log2-transformed counts.

CD46 expression [2] = experiment: CD46 expression by RNA-sequencing in unpaired pre-treatment and post-treatment tumor biopsies; type: in vivo, human; details: for CD46 expression diff: Post minus Pre, unpaired biopsies, log2-transformed counts; for CD46 expression Percentage change: post- vs pre-treatment unpaired biopsies; for CD46 expression Post: post-treatment biopsies, unpaired, RNA-seq log2-transformed normalized counts
[3] = Head and Neck Squamous Cell Carcinoma
[4] = Clear Cell Renal Cell Carcinoma

## O=C1[O][Pt]2([NH][C@@H]3CCCC[C@H]3[NH]2)[O]C1=O [oxaliplatin]
CD46 expression [1]; Colorectal Cancer
  CD46 expression diff (post minus pre): −0.04
  Percent Change in CD46 expression: −0.6%
  CD46 expression, Post-Treatment Biopsy: 6.26
  CD46 expression, Pre-Treatment Biopsy: 6.30
CD46 expression [1]; Esophageal Cancer
  CD46 expression diff (post minus pre): −0.17
  Percent Change in CD46 expression: −2.9%
  CD46 expression, Post-Treatment Biopsy: 5.74
  CD46 expression, Pre-Treatment Biopsy: 5.91
CD46 expression [1]; Gastric Cancer
  CD46 expression diff (post minus pre): 0.05
  Percent Change in CD46 expression: 0.8%
  CD46 expression, Post-Treatment Biopsy: 5.69
  CD46 expression, Pre-Treatment Biopsy: 5.64
CD46 expression [1]; Pancreatic Cancer
  CD46 expression diff (post minus pre): 0.06
  Percent Change in CD46 expression: 1.0%
  CD46 expression, Post-Treatment Biopsy: 5.93
  CD46 expression, Pre-Treatment Biopsy: 5.87
CD46 expression [2]; Biliary Cancer
  CD46 expression diff: 0.05
  CD46 expression Percentage change: 0.9%
  CD46 expression Post: 5.91
CD46 expression [2]; Colorectal Cancer
  CD46 expression diff: 0.04
  CD46 expression Percentage change: 0.6%
  CD46 expression Post: 6.42
CD46 expression [2]; Esophageal Cancer
  CD46 expression diff: −0.06
  CD46 expression Percentage change: −1.0%
  CD46 expression Post: 5.85
CD46 expression [2]; Gastric Cancer
  CD46 expression diff: −0.12
  CD46 expression Percentage change: −2.1%
  CD46 expression Post: 5.66
CD46 expression [2]; Pancreatic Cancer
  CD46 expression diff: −0.13
  CD46 expression Percentage change: −2.2%

## O=P1(N(CCCl)CCCl)NCCCO1 (stereo not shown) [cyclophosphamide]
CD46 expression [1]; Breast Cancer
  CD46 expression diff (post minus pre): 0.01
  Percent Change in CD46 expression: 0.2%
  CD46 expression, Post-Treatment Biopsy: 6.22
CD46 expression [2]; Breast Cancer
  CD46 expression diff: −0.03
  CD46 expression Percentage change: −0.4%
  CD46 expression Post: 6.08
CD46 expression [2]; Ovarian Cancer
  CD46 expression diff: 0.11
  CD46 expression Percentage change: 1.9%
  CD46 expression Post: 5.76
CD46 expression [2]; Sarcoma
  CD46 expression diff: 0.06
  CD46 expression Percentage change: 1.2%
  CD46 expression Post: 5.12

## CC/C(=C(\c1ccccc1)c1ccc(OCCN(C)C)cc1)c1ccccc1 [tamoxifen]
CD46 expression [1]; Breast Cancer
  CD46 expression diff (post minus pre): 0.11
  Percent Change in CD46 expression: 1.7%
  CD46 expression, Post-Treatment Biopsy: 6.32
CD46 expression [2]; Breast Cancer
  CD46 expression diff: 0.11
  CD46 expression Percentage change: 1.8%
  CD46 expression Post: 6.38

## N.N.O=C([O-])C1(C(=O)[O-])CCC1.[Pt+2] [carboplatin]
CD46 expression [1]; Breast Cancer
  CD46 expression diff (post minus pre): −0.08
  Percent Change in CD46 expression: −1.2%
  CD46 expression, Post-Treatment Biopsy: 6.06
  CD46 expression, Pre-Treatment Biopsy: 6.14
CD46 expression [1]; Endometrial Cancer
  CD46 expression diff (post minus pre): 0.30
  Percent Change in CD46 expression: 5.1%
  CD46 expression, Pre-Treatment Biopsy: 5.95
CD46 expression [1]; Non-Small Cell Lung Cancer
  CD46 expression diff (post minus pre): −0.06
  Percent Change in CD46 expression: −1.0%
  CD46 expression, Post-Treatment Biopsy: 6.07
CD46 expression [1]; Ovarian Cancer
  CD46 expression diff (post minus pre): 0.01
  Percent Change in CD46 expression: 0.2%
  CD46 expression, Post-Treatment Biopsy: 5.67
  CD46 expression, Pre-Treatment Biopsy: 5.66
CD46 expression [2]; Bladder Cancer
  CD46 expression diff: 0.14
  CD46 expression Percentage change: 2.3%
  CD46 expression Post: 6.12
CD46 expression [2]; Breast Cancer
  CD46 expression diff: −0.07
  CD46 expression Percentage change: −1.1%
  CD46 expression Post: 6.00
CD46 expression [2]; Colorectal Cancer
  CD46 expression diff: 0.59
  CD46 expression Percentage change: 10.3%
  CD46 expression Post: 6.35
CD46 expression [2]; Endocrine Tumor
  CD46 expression diff: 0.22
  CD46 expression Percentage change: 3.9%
  CD46 expression Post: 5.90
CD46 expression [2]; Endometrial Cancer
  CD46 expression diff: 0.01
  CD46 expression Percentage change: 0.2%
  CD46 expression Post: 5.83
CD46 expression [2]; Esophageal Cancer
  CD46 expression diff: −0.11
  CD46 expression Percentage change: −1.8%
  CD46 expression Post: 5.79
CD46 expression [2]; [3]
  CD46 expression diff: 0.11
  CD46 expression Percentage change: 2.0%
  CD46 expression Post: 5.69
CD46 expression [2]; Non-Small Cell Lung Cancer
  CD46 expression diff: −0.08
  CD46 expression Percentage change: −1.2%
  CD46 expression Post: 6.10
CD46 expression [2]; Ovarian Cancer
  CD46 expression diff: −0.01
  CD46 expression Percentage change: −0.2%
  CD46 expression Post: 5.73
CD46 expression [2]; Prostate Cancer
  CD46 expression diff: −0.03
  CD46 expression Percentage change: −0.5%
  CD46 expression Post: 5.92

## Nc1ccn([C@@H]2O[C@H](CO)[C@@H](O)C2(F)F)c(=O)n1 [gemcitabine]
CD46 expression [1]; Biliary Cancer
  CD46 expression diff (post minus pre): 0.05
  Percent Change in CD46 expression: 0.9%
  CD46 expression, Post-Treatment Biopsy: 5.86
CD46 expression [1]; Bladder Cancer
  CD46 expression diff (post minus pre): −0.05
  Percent Change in CD46 expression: −0.8%
  CD46 expression, Post-Treatment Biopsy: 6.24
CD46 expression [1]; Breast Cancer
  CD46 expression diff (post minus pre): 0.09
  Percent Change in CD46 expression: 1.4%
  CD46 expression, Post-Treatment Biopsy: 6.22
CD46 expression [1]; Ovarian Cancer
  CD46 expression diff (post minus pre): 0.30
  Percent Change in CD46 expression: 5.3%
  CD46 expression, Post-Treatment Biopsy: 5.95
CD46 expression [1]; Pancreatic Cancer
  CD46 expression diff (post minus pre): 0.09
  Percent Change in CD46 expression: 1.5%
  CD46 expression, Post-Treatment Biopsy: 5.93
CD46 expression [1]; Sarcoma
  CD46 expression diff (post minus pre): 0.02
  Percent Change in CD46 expression: 0.4%
  CD46 expression, Post-Treatment Biopsy: 5.13
CD46 expression [2]; Biliary Cancer
  CD46 expression diff: −0.03
  CD46 expression Percentage change: −0.5%
  CD46 expression Post: 5.80
CD46 expression [2]; Bladder Cancer
  CD46 expression diff: −0.03
  CD46 expression Percentage change: −0.5%
  CD46 expression Post: 6.12
CD46 expression [2]; Breast Cancer
  CD46 expression diff: 0.02
  CD46 expression Percentage change: 0.3%
  CD46 expression Post: 6.09
CD46 expression [2]; Non-Small Cell Lung Cancer
  CD46 expression diff: 0.10
  CD46 expression Percentage change: 1.7%
  CD46 expression Post: 5.98
CD46 expression [2]; Ovarian Cancer
  CD46 expression diff: −0.05
  CD46 expression Percentage change: −0.9%
  CD46 expression Post: 5.72
CD46 expression [2]; Pancreatic Cancer
  CD46 expression diff: 0.00
  CD46 expression Percentage change: 0.1%
  CD46 expression Post: 5.87
CD46 expression [2]; Sarcoma
  CD46 expression diff: −0.10
  CD46 expression Percentage change: −2.0%
  CD46 expression Post: 5.02

## pembrolizumab
CD46 expression [1]; Breast Cancer
  CD46 expression diff (post minus pre): −0.11
  Percent Change in CD46 expression: −1.7%
  CD46 expression, Pre-Treatment Biopsy: 6.28
CD46 expression [1]; Melanoma
  CD46 expression diff (post minus pre): 0.03
  Percent Change in CD46 expression: 0.6%
  CD46 expression, Post-Treatment Biopsy: 5.25
  CD46 expression, Pre-Treatment Biopsy: 5.22
CD46 expression [1]; Non-Small Cell Lung Cancer
  CD46 expression diff (post minus pre): −0.24
  Percent Change in CD46 expression: −3.8%
  CD46 expression, Post-Treatment Biopsy: 6.00
  CD46 expression, Pre-Treatment Biopsy: 6.23
CD46 expression [2]; Bladder Cancer
  CD46 expression diff: 0.06
  CD46 expression Percentage change: 0.9%
  CD46 expression Post: 6.18
CD46 expression [2]; Breast Cancer
  CD46 expression diff: −0.13
  CD46 expression Percentage change: −2.2%
  CD46 expression Post: 5.95
CD46 expression [2]; Colorectal Cancer
  CD46 expression diff: 0.30
  CD46 expression Percentage change: 4.8%
  CD46 expression Post: 6.50
CD46 expression [2]; Esophageal Cancer
  CD46 expression diff: 0.09
  CD46 expression Percentage change: 1.4%
  CD46 expression Post: 6.01
CD46 expression [2]; [3]
  CD46 expression diff: 0.17
  CD46 expression Percentage change: 3.1%
  CD46 expression Post: 5.76
CD46 expression [2]; Melanoma
  CD46 expression diff: 0.00
  CD46 expression Percentage change: 0.0%
  CD46 expression Post: 5.30
CD46 expression [2]; Non-Small Cell Lung Cancer
  CD46 expression diff: −0.05
  CD46 expression Percentage change: −0.7%

## nivolumab
CD46 expression [1]; Melanoma
  CD46 expression diff (post minus pre): −0.04
  Percent Change in CD46 expression: −0.7%
  CD46 expression, Post-Treatment Biopsy: 5.26
  CD46 expression, Pre-Treatment Biopsy: 5.29
CD46 expression [2]; [4]
  CD46 expression diff: −0.06
  CD46 expression Percentage change: −1.1%
  CD46 expression Post: 5.50
CD46 expression [2]; Melanoma
  CD46 expression diff: −0.02
  CD46 expression Percentage change: −0.5%
  CD46 expression Post: 5.31
CD46 expression [2]; Non-Small Cell Lung Cancer
  CD46 expression diff: −0.09
  CD46 expression Percentage change: −1.5%
  CD46 expression Post: 6.11
